Reference: ChEMBL document CHEMBL1158545, “3'-(1,2,3-Triazol-1-yl)-3'-deoxythymidine analogs as substrates for human and Ureaplasma parvum thymidine kinase for structure-activity investigations” (Bioorg Med Chem, 2010)
Each block holds one molecule with its values, some of them ahead of it.

What was measured:
[1] = biological target: T1, Thymidine kinase, cytosolic (Homo sapiens) (UniProt P04183); assay: Ratio of Vmax to Km for human TK1 relative to […]
T1 sequence (whole entry): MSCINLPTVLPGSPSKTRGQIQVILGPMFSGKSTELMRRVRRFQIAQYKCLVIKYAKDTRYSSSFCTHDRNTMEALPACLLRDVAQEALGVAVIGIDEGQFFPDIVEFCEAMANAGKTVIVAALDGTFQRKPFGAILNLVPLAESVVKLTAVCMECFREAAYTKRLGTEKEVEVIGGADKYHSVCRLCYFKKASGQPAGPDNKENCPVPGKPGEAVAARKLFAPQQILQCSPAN

[2] = biological target: T2, Thymidine kinase (Ureaplasma parvum serovar 3 (strain ATCC 700970)) (UniProt Q9PPP5); assay: Activity of Ureaplasma parvum thymidine kinase relative to dThd
T2 sequence (whole entry): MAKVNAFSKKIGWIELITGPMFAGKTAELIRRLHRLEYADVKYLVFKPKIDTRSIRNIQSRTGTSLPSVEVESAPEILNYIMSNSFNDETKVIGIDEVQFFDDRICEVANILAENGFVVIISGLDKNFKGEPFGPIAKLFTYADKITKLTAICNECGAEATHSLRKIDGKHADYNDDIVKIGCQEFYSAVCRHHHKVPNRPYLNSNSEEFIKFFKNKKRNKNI

[3] = biological target: T1, Thymidine kinase, cytosolic (Homo sapiens); assay: Activity of human TK1 relative to ATP; set-up: concentration or dose not given beside the values
[4] = biological target: T2, Thymidine kinase (Ureaplasma parvum serovar 3 (strain ATCC 700970)); assay: Ratio of Vmax to Km for Ureaplasma parvum thymidine kinase relative to dThd
[5] = biological target: T3, Thymidine kinase, cytosolic (Homo sapiens, UniProt P04183); assay: Inhibition of human TK1 by liquid scintillation counting
T3 sequence (P04183 whole entry): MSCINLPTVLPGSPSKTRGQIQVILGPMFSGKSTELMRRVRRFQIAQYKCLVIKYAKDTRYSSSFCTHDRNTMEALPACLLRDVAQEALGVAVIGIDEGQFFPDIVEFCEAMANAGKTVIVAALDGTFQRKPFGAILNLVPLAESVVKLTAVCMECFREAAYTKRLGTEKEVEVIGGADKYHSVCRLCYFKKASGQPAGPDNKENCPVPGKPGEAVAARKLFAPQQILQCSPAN

Thymidine kinase = biological target: T4, Thymidine kinase (Ureaplasma parvum serovar 3 (strain ATCC 700970), UniProt Q9PPP5); assay: Inhibition of Ureaplasma parvum thymidine kinase by liquid scintillation counting
T4 sequence (Q9PPP5 whole entry): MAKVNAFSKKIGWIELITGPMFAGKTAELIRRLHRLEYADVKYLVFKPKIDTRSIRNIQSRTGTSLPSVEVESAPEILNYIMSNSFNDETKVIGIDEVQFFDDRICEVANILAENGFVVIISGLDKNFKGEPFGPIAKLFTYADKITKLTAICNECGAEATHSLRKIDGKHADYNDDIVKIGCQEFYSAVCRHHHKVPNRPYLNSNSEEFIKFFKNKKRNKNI

[6] = substrate: Cc1cn([C@H]2C[C@H](N=[N+]=[N-])[C@@H](CO)O2)c(=O)[nH]c1=O; conditions: Homo sapiens
[7] = substrate: Cc1cn([C@H]2C[C@H](n3cc(-c4ccccn4)nn3)[C@@H](CO)O2)c(=O)[nH]c1=O; conditions: Homo sapiens
[8] = substrate: Cc1cn([C@H]2C[C@H](n3cc(-c4ccccc4)nn3)[C@@H](CO)O2)c(=O)[nH]c1=O; conditions: Homo sapiens
[9] = substrate: CC(=O)OCc1cn([C@H]2C[C@H](n3cc(C)c(=O)[nH]c3=O)O[C@@H]2CO)nn1; conditions: Homo sapiens
[10] = substrate: CCCCCc1cn([C@H]2C[C@H](n3cc(C)c(=O)[nH]c3=O)O[C@@H]2CO)nn1; conditions: Homo sapiens
[11] = substrate: Cc1cn([C@H]2C[C@H](n3cc(CCc4ccccc4)nn3)[C@@H](CO)O2)c(=O)[nH]c1=O; conditions: Homo sapiens
[12] = substrate: CCCc1cn([C@H]2C[C@H](n3cc(C)c(=O)[nH]c3=O)O[C@@H]2CO)nn1; conditions: Homo sapiens
[13] = substrate: Cc1cn([C@H]2C[C@H](n3cc(C(C)(C)C)nn3)[C@@H](CO)O2)c(=O)[nH]c1=O; conditions: Homo sapiens
[14] = substrate: Cc1cn([C@H]2C[C@H](n3cc(Cc4ccccc4)nn3)[C@@H](CO)O2)c(=O)[nH]c1=O; conditions: Homo sapiens
[15] = substrate: Cc1cn([C@H]2C[C@H](N=[N+]=[N-])[C@@H](CO)O2)c(=O)[nH]c1=O; conditions: Ureaplasma parvum
[16] = substrate: Cc1cn([C@H]2C[C@H](n3cc(-c4ccccn4)nn3)[C@@H](CO)O2)c(=O)[nH]c1=O; conditions: Ureaplasma parvum
[17] = substrate: Cc1cn([C@H]2C[C@H](n3cc(-c4ccccc4)nn3)[C@@H](CO)O2)c(=O)[nH]c1=O; conditions: Ureaplasma parvum
[18] = substrate: CC(=O)OCc1cn([C@H]2C[C@H](n3cc(C)c(=O)[nH]c3=O)O[C@@H]2CO)nn1; conditions: Ureaplasma parvum
[19] = substrate: CCCCCc1cn([C@H]2C[C@H](n3cc(C)c(=O)[nH]c3=O)O[C@@H]2CO)nn1; conditions: Ureaplasma parvum
[20] = substrate: Cc1cn([C@H]2C[C@H](n3cc(CCc4ccccc4)nn3)[C@@H](CO)O2)c(=O)[nH]c1=O; conditions: Ureaplasma parvum
[21] = substrate: CCCc1cn([C@H]2C[C@H](n3cc(C)c(=O)[nH]c3=O)O[C@@H]2CO)nn1; conditions: Ureaplasma parvum
[22] = substrate: Cc1cn([C@H]2C[C@H](n3cc(C(C)(C)C)nn3)[C@@H](CO)O2)c(=O)[nH]c1=O; conditions: Ureaplasma parvum
[23] = substrate: Cc1cn([C@H]2C[C@H](n3cc(Cc4ccccc4)nn3)[C@@H](CO)O2)c(=O)[nH]c1=O; conditions: Ureaplasma parvum

Activity [1]: 0.1%
Activity [2]: 6.5%
Activity [3]: 2.7%
Activity [4]: 0.5%
Molecule: CCCc1cn([C@H]2C[C@H](n3cc(C)c(=O)[nH]c3=O)O[C@@H]2CO)nn1

Molecule: COCc1cn([C@H]2C[C@H](n3cc(C)c(=O)[nH]c3=O)O[C@@H]2CO)nn1
Activity [2]: 1.6%
Activity [3]: 1.3%

Molecule: Cc1cn([C@H]2C[C@H](n3cc(CCc4ccccc4)nn3)[C@@H](CO)O2)c(=O)[nH]c1=O
Activity [1]: 0.08%
Activity [2]: 12.3%
Activity [3]: 2.4%
IC50 [5]: 60 µM
Activity [4]: 0.8%

Molecule: Cc1cn([C@H]2C[C@H](n3cc(-c4ccc(F)cc4)nn3)[C@@H](CO)O2)c(=O)[nH]c1=O
Activity [1]: 1.1%
Activity [2]: 13.7%
Activity [3]: 2.6%
IC50 (Thymidine kinase): 71 µM
IC50 [5]: 44 µM

Molecule: Cc1cn([C@H]2C[C@H](n3cc(CCO)nn3)[C@@H](CO)O2)c(=O)[nH]c1=O
Activity [2]: 4.1%
Activity [3]: 2.2%

Molecule: Cc1cn([C@H]2C[C@H](N=[N+]=[N-])[C@@H](CO)O2)c(=O)[nH]c1=O
Activity [1]: 50%
Activity [2]: 27.8%
Activity [3]: 47.3%
Activity [4]: 43%

Molecule: Cc1cn([C@H]2C[C@H](n3cc(C(C)(C)C)nn3)[C@@H](CO)O2)c(=O)[nH]c1=O
Activity [1]: 0.07%
Activity [2]: 4.7%
Activity [3]: 2.2%
Activity [4]: 0.15%

Molecule: Cc1cn([C@H]2C[C@H](n3cc(Cc4ccccc4)nn3)[C@@H](CO)O2)c(=O)[nH]c1=O
Activity [1]: 0.1%
Activity [2]: 11.6%
Activity [3]: 4.8%
IC50 (Thymidine kinase): 73 µM
IC50 [5]: 78 µM
Activity [4]: 0.8%

Molecule: Cc1cn([C@H]2C[C@H](n3cc(-c4ccccn4)nn3)[C@@H](CO)O2)c(=O)[nH]c1=O
Activity [1]: 0.5%
Activity [2]: 7.1%
Activity [3]: 3.1%
IC50 [5]: 53 µM
Activity [4]: 1.1%

Molecule: CC(=O)OCc1cn([C@H]2C[C@H](n3cc(C)c(=O)[nH]c3=O)O[C@@H]2CO)nn1
Activity [1]: 0.1%
Activity [2]: 3.9%
Activity [3]: 2.4%
Activity [4]: 0.6%

Molecule: Cc1cn([C@H]2C[C@H](n3cc(-c4ccccc4)nn3)[C@@H](CO)O2)c(=O)[nH]c1=O
Activity [1]: 0.2%
Activity [2]: 5.5%
Activity [3]: 2.1%
IC50 [5]: 99 µM
Activity [4]: 0.7%

Activity [1]: 0.3%
Activity [2]: 7.2%
Activity [3]: 1.9%
Activity [4]: 1.6%
Molecule: CCCCCc1cn([C@H]2C[C@H](n3cc(C)c(=O)[nH]c3=O)O[C@@H]2CO)nn1

B1: Thymidine kinase, cytosolic (Homo sapiens), P04183 (protein)
chain: MSCINLPTVLPGSPSKTRGQIQVILGPMFSGKSTELMRRVRRFQIAQYKCLVIKYAKDTRYSSSFCTHDRNTMEALPACLLRDVAQEALGVAVIGIDEGQFFPDIVEFCEAMANAGKTVIVAALDGTFQRKPFGAILNLVPLAESVVKLTAVCMECFREAAYTKRLGTEKEVEVIGGADKYHSVCRLCYFKKASGQPAGPDNKENCPVPGKPGEAVAARKLFAPQQILQCSPAN
Km [6]: 3.5 µM
Km [7]: 33 µM
Km [8]: 57 µM
Km [9]: 114 µM
Km [10]: 75 µM
Km [11]: 204 µM
Km [12]: 138 µM
Km [13]: 243 µM
Km [14]: 174 µM

B2: Thymidine kinase (Ureaplasma parvum serovar 3 (strain ATCC 700970)), Q9PPP5 (protein)
chain: MAKVNAFSKKIGWIELITGPMFAGKTAELIRRLHRLEYADVKYLVFKPKIDTRSIRNIQSRTGTSLPSVEVESAPEILNYIMSNSFNDETKVIGIDEVQFFDDRICEVANILAENGFVVIISGLDKNFKGEPFGPIAKLFTYADKITKLTAICNECGAEATHSLRKIDGKHADYNDDIVKIGCQEFYSAVCRHHHKVPNRPYLNSNSEEFIKFFKNKKRNKNI
Km [15]: 2.7 µM
Km [16]: 30 µM
Km [17]: 40 µM
Km [18]: 78 µM
Km [19]: 32 µM
Km [20]: 104 µM
Km [21]: 122 µM
Km [22]: 259 µM
Km [23]: 85 µM
